Assay results: patent US9347089B2, “Therapeutic and diagnostic strategies” (Children's Medical Center Corporation, priority 2008, dated 2016)

Assays:
H2AX mRNA = H2AX mRNA level by qRT-PCR; assay type: cell-based, human
Experimental: (§1) HepG2 cells were grown in DMEM supplemented with 10% FCS. HL60 and K562 cells were grown in RPMI-1640 supplemented with 10% FCS. K562 cells (0.5×10^6 cells/ml) were treated with TPA (16 nM, 2 d) or Hemin (100 μM, 4 d) for differentiation into megakaryocytes or erythrocytes, respectively. To induce macrophage or granulocyte differentiation, HL60 cells (0.5×10^6 cells/ml) were treated with TPA (16 nM, 2 d) or DMSO (1.25%, 5 d), respectively. We isolated human polymorphonuclear neutrophils (PMN) from whole blood after removing mononuclear cells and platelets by Ficoll-Hypaque density gradient centrifugation. Erythrocytes were lysed by treatment with ice-cold isotonic lysis buffer (0.155 M NH4Cl, pH 7.4). The remaining PMN cells were washed with Hanks' balanced salt solution and suspended in RPMI medium containing 10% (v/v) FCS. We isolated human macrophages from peripheral blood as described in Song et al. 2003.
(§2) Total RNA was isolated using Trizol (Invitrogen) and reverse transcribed using random hexamers and superscript II reverse transcriptase (Invitrogen). qRT-PCR was performed in triplicate samples using the SYBR Green master mix (Applied Biosystems) and the BioRad iCycler. Primers are provided in Supplemental Table 1. Results were normalized to GAPDH. miRNA quantitative PCR was done in triplicate using the TaqMan MicroRNA Assay from Applied Biosystems as per the manufacturer's instructions and normalized to U6 SnRNA.
(§3) HepG2 cells (2.5×10^5/well) were reverse transfected with 30 nM miRNA […] (cel-miR-67) mimics (Dharmacon) using NeoFx (Ambion) following the manufacturer's instructions. K562 cells were transfected with miRNA or control mimics (100 nM) using Amaxa nucleofection following the manufacturer's protocol. K562 cells were treated with TPA (16 nM, 2 d) and were transfected with 100 nM miR-24 ASO using lipofectamine 2000 (Invitrogen) and 36 h later these cells were exposed to indicated concentrations of bleomycin and cell viability was assessed 2 d later.

miR-24 = miR-24 level by qRT-PCR relative to U6; assay type: cell-based, human
Experimental: as §1, §2, §3

H2AX = H2AX protein level by immunoblot (densitometry relative to H3); assay type: cell-based, human
K562 cells [1] = experiment: Chromosome breakage analysis after γ-irradiation; assay type: cell-based, human; settings: for Chromosome breaks and fragments versus control cells: 24 hr after 0.75 Gy γ-irradiation
Experimental: K562 and HepG2 cultures were exposed in duplicate wells to indicated doses of γ-irradiation and incubated at 37° C. for indicated times in 5% CO2. Cells were harvested and processed for chromosomal analysis following standard methods (S1). 50-75 Wright-stained metaphases for each condition were scored for chromosomal aberrations.

K562 cells [2] = experiment: Cell viability assay after genotoxic drug, K562; assay type: cell-based, human; settings: for Sensitivity to DNA damage (viability after bleomycin): viability 2 d later
Experimental: as §3
(§4) microRNA-transfected K562 or HepG2 cells were seeded (2×10^3 cells/100 μl) into octuplicate microtiter wells, incubated overnight, and then treated with indicated reagents or medium for 48 h. Viability was measured by CyQuant Cell Proliferation Assay Kit as per manufacturer's instructions (Molecular Probes). Results were expressed as OD520 relative to that of untreated cells.

K562 cells [3] = experiment: Cell proliferation by thymidine uptake; assay type: cell-based, human; settings: TPA-treated K562 cells, by 12 h
3′UTR of H2AX mRNA = experiment: Luciferase reporter assay with H2AX 3′UTR / MRE reporters in HepG2 cells; assay type: cell-based
Experimental: HepG2 cells (2.5×10^5/well) were reverse transfected in triplicate with 30 nM miR-24 mimic, miRNA-328 mimic or control miRNA mimic. Two days later, cells were transfected using Lipofectamine 2000 (Invitrogen) with psiCHECK2 (Promega) vector (0.5 μg/well) containing the 3′UTR of H2AX cloned in the multiple cloning site of Renilla luciferase or control. After 24 hr luciferase activities were measured using the Dual Luciferase Assay System (Promega) and TopCount NXT microplate reader (Perkin Elmer) per manufacturer's instructions. Data were normalized to Firefly luciferase. To test whether H2AX mRNA is directly regulated by miR-24, we cloned the two predicted MREs in the H2AX 3′ UTR into the multiple cloning site of psiCHECK2 and also the mutant versions that disrupted base-pairing between the binding sites and miR-24. HepG2 cells were cotransfected with these plasmids and miR-24 or control mimics for 48 h using Lipofectamine 2000, before we performed the luciferase assays as described above.

K562 cells [4] = experiment: Single cell gel electrophoresis (comet) assay; assay type: cell-based, human
HepG2 cells [5] = experiment: Cell viability assay after genotoxic drug, HepG2; assay type: cell-based
Experimental: as §3, §4

HepG2 cells [6] = experiment: Cell cycle analysis by propidium iodide flow cytometry; assay type: cell-based; settings: HepG2 cells transfected 48 hr
CHEK1 = CHEK1 protein level by immunoblot; assay type: cell-based, human; settings: K562 cells
Experimental: K562 cells (1×10^6) were transfected with miR-24 mimics or control miRNA mimics (cel-miR-67) as above and 48 h later whole cell lysates were prepared using RIPA buffer (150 mM NaCl, 1% NP-40, 0.5% sodium deoxycholate, 0.1% SDS, 50 mM Tris, pH 8.0). Protein samples were quantified using Bradford reagent (BioRad) and resolved on 10% SDS-PAGE gels and analyzed by immunoblot probed with antibodies to H2AX (Upstate Biotech), CHEK1 (cell Signaling), histone H3 (Cell Signaling), tubulin (Sigma). All antibodies were used at a dilution of 1:1000.

UBC mRNA = UBC mRNA level by qRT-PCR; assay type: cell-based; settings: miR-24 over-expression in HepG2 cells
Experimental: as §2, §3

C[S+](C)[O-] [DMSO]
Decline of H2AX mRNA, primers specific for the longer transcript (H2AX mRNA; HL60 cell differentiation): two-fold | miR-24 level during differentiation (miR-24; HL60 cells): increases

CCCCCCCCCCCCCC(=O)O[C@@H]1[C@@H](C)[C@@]2(O)[C@@H](C=C(CO)C[C@]3(O)C(=O)C(C)=C[C@@H]23)[C@@H]2C(C)(C)[C@]12OC(C)=O [TPA, 12-O-tetradecanoylphorbol-13-acetate]
Decline of H2AX mRNA, primers specific for the longer transcript (H2AX mRNA; HL60 cell differentiation): two-fold | Decline of H2AX mRNA, primers specific for the longer transcript (H2AX mRNA; K562 cell differentiation): two-fold | Drop of H2AX protein level (H2AX; HL60 cells after TPA induction): 4 fold | Drop of H2AX protein level (H2AX; K562 cells after TPA induction): 14 fold | Chromosome breaks and fragments versus control cells (K562 cells [1]): significantly more sensitive | Sensitivity to DNA damage (viability after bleomycin) (K562 cells [2]): significantly hypersensitive | miR-24 level during differentiation (miR-24; HL60 cells): increases | miR-24 level during differentiation (miR-24; K562 cells): increases | Thymidine incorporation (K562 cells [3]): no thymidine incorporation

hemin
Decline of H2AX mRNA, primers specific for the longer transcript (H2AX mRNA; K562 cell differentiation): two-fold | miR-24 level during differentiation (miR-24; K562 cells): increases

miR-24: microRNA miR-24 (SEQ ID NO: 1), transfected as synthetic mimic (Dharmacon) for over-expression (UGGCUCAGUUCAGCAGGAACAG; synthetic mimic, further chemistry not given here)
Reduction of luciferase activity (3′UTR of H2AX mRNA; H2AX 3′UTR-containing reporter): more than 2 fold | Effect on luciferase activity, mutated MRE reporters (3′UTR of H2AX mRNA; MREs with mutated seed region): little effect | Luciferase activity from control reporters (3′UTR of H2AX mRNA; control reporter (vector)): unchanged | Reduction of luciferase activity, wild-type miR-24 MRE reporters (3′UTR of H2AX mRNA; either wild-type MRE inserted): approximately four-fold | Decrease of H2AX mRNA (H2AX mRNA; miRNA over-expression in HepG2 cells, 48 hr, normalized to GAPDH): 2 fold | H2AX protein (H2AX; K562 cells transfected with mimic): reduces H2AX comparably to TPA differentiation | Reduction of H2AX protein expression (H2AX; miRNA over-expression in HepG2 cells, 48 hr): −8 fold | Chromosomal instability versus control cells (K562 cells [1]; 0.38 Gy): more chromosomal instability | Chromosome breaks versus control cells (K562 cells [1]; 24 hr after 0.38 Gy): not significantly more breaks | Chromosome breaks and fragments versus control cells (K562 cells [1]): twice as many | Comet tails compared to control miRNA-transfected cells (K562 cells [4]; K562 cells after bleomycin treatment): 5 fold | Comet moment after bleomycin with H2AX rescue (K562 cells [4]; K562 cells co-transfected with H2AX expression plasmid lacking 3′UTR, versus miRNA control and vector): no significant increase | Basal comet moment (K562 cells [4]; K562 cells, no bleomycin): not significantly changed | Repair of bleomycin-induced DNA damage by comet assay (K562 cells [4]; TPA-treated K562 cells): significantly enhances repair | Effect on survival with miR-24-insensitive H2AX over-expression (K562 cells [2]): fully rescued | Hypersensitivity to bleomycin with miR-24-insensitive CHEK1 expression (K562 cells [2]; CHEK1 cDNA lacking 3′UTR): not rescued | Sensitivity to DNA damage (viability after bleomycin) (K562 cells [2]): significantly hypersensitive | Effect on survival with miR-24-insensitive H2AX over-expression (HepG2 cells [5]; HepG2 cells): fully rescued | Cytotoxicity of bleomycin (HepG2 cells [5]; mimic-transfected HepG2 cells): significantly enhanced cytotoxicity | Cytotoxicity of cisplatin (HepG2 cells [5]; mimic-transfected HepG2 cells): significantly enhanced cytotoxicity | G1 compartment (HepG2 cells [6]): increases | CHEK1 protein (CHEK1): decrease | Effect on UBC mRNA levels (UBC mRNA): does not alter
